Measurements: EP3603649A1 (priority 2018, dated 2020)

Tests used:
[1] = target: Hamster recombinant full length PrP (Mesocricetus auratus, UniProt P04273); assay type: biochemical
in vitro = settings: mouse, cerebellar granule neurons
PrP^res = system: PrP^res; set-up: species or system C57BL/6 mice; settings: mouse, in vivo
[2] = system: endothelial cells of the BBB; settings: cited from earlier work

Chain of Hamster recombinant full length PrP (P04273 23-254 limits assumed): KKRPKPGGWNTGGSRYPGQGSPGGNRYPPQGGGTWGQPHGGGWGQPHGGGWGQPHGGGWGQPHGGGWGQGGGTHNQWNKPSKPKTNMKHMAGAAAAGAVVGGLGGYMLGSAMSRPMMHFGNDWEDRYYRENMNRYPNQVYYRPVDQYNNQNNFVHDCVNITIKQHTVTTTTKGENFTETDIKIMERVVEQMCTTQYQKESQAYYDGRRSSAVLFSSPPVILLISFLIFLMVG

| Molecule | concentration of maximum effect on lag phase [1] | lag phase (time for the reaction to start) [1] | MCC at 72 h (in vitro) | PrP^res accumulation in brain (difference between the groups) (PrP^res) | toxicity on endothelial cells of the BBB [2] |
| --- | --- | --- | --- | --- | --- |
| COC[C@H]1O[C@@H]2O[C@H]3[C@H](O)[C@@H](OC)[C@@H](O[C@H]4[C@H](O)[C@@H](OC)[C@@H](O[C@H]5[C@H](O)[C@@H](OC)[C@@H](O[C@H]6[C@H](O)[C@@H](OC)[C@@H](O[C@H]7[C@H](O)[C@@H](OC)[C@@H](O[C@H]8[C@H](O)[C@@H](OC)[C@@H](O[C@H]1[C@H](O)[C@H]2OC)O[C@@H]8COC)O[C@@H]7COC)O[C@@H]6COC)O[C@@H]5COC)O[C@@H]4COC)O[C@@H]3COC [DIMEB, heptakis(2,6-O-dimethyl)beta-cyclodextrin] | 100 µM | significantly increased | > 500 µM | did not show any difference |  |
| trimethyl-β-cyclodextrin [TRIMEB] |  |  |  |  | more toxic than α-cyclodextrin |
